The record followed here is ChEMBL document CHEMBL1138920, “Putative therapeutic agents for the learning and memory deficits of people with Down syndrome” (Bioorg Med Chem Lett, 2006).

The target of assay [1] is Dual specificity tyrosine-phosphorylation-regulated kinase 1A (Mus musculus, UniProt Q61214). The experiment in a line: Inhibition of mouse Dyrk1A autophosphorylation in HEk293 cells. Format: cell-based.
Assay [2] addresses Dual specificity tyrosine-phosphorylation-regulated kinase 1A (Mus musculus) (UniProt Q61214). The experiment in a line: Inhibition of mouse Dyrk1A autophosphorylation in HEk293 cells at 10 uM. Format: cell-based.
For assay [3], the target named is Casein kinase II (Homo sapiens) (UniProt P67870+P68400+P19784). The experiment in a line: Activity against CK2 at 10 uM in the presence of 100 uM ATP relative to control. Format: protein-complex assay.
Assay [4] has as its target Glycogen synthase kinase-3 beta (Homo sapiens) (UniProt P49841). The assay can be described thus: Activity against GSK3-beta at 10 uM in the presence of 100 uM ATP relative to control.
In assay [5] the target is Mitogen-activated protein kinase 1 (Homo sapiens) (UniProt P28482). The experiment in a line: Activity against MAPK2 at 10 uM in the presence of 100 uM ATP relative to control.
Mitogen-activated protein kinase 1 (Homo sapiens), sequence (P28482 whole entry): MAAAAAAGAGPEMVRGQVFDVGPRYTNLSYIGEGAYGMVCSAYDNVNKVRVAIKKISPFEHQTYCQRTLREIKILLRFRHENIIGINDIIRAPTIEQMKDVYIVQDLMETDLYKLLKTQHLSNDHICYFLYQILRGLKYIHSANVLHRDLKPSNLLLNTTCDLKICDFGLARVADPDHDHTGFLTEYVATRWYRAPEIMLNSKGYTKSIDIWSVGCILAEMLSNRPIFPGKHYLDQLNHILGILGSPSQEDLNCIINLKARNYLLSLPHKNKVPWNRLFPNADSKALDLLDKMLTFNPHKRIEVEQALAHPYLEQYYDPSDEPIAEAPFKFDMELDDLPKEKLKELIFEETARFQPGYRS
Assay [6] concerns the target T1, MAP kinase-activated protein kinase 5 (Homo sapiens) (UniProt Q8IW41).
T1 sequence (whole entry): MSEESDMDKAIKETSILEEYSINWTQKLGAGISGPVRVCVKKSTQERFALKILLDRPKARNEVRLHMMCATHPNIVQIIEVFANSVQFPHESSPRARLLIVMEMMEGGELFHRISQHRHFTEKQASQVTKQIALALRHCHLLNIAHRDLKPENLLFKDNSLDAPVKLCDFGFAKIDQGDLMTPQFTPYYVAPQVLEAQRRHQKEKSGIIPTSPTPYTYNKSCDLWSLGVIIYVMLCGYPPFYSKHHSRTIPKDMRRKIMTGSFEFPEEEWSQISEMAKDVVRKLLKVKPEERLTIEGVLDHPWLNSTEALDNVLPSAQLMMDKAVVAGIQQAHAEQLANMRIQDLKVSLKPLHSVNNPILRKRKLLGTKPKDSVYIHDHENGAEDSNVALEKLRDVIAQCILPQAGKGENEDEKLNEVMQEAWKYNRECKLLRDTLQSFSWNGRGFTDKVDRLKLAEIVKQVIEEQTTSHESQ
The experiment in a line: Activity against PRAK at 10 uM in the presence of 100 uM ATP relative to control.

Assay [7] deals with Dual specificity protein kinase CLK3 (Homo sapiens) (UniProt P49761). The experiment in a line: Activity against CLK3 at 10 uM in the presence of 100 uM ATP relative to control.
Dual specificity protein kinase CLK3 (Homo sapiens), sequence (P49761 whole entry, looked up): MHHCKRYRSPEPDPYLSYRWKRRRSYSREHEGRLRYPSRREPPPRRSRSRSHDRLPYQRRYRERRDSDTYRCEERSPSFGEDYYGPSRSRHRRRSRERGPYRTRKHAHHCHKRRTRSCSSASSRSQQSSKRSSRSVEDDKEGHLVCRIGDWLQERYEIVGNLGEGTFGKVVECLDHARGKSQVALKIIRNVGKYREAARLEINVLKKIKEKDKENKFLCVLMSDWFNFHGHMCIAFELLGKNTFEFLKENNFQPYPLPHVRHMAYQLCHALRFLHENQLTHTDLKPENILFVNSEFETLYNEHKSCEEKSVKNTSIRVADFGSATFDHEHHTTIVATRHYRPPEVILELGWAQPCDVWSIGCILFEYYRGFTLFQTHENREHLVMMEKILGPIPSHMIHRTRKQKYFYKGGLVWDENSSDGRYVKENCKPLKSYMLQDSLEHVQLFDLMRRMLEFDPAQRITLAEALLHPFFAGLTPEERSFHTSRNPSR
The target in assay [8] is CaM kinase II (Homo sapiens) (UniProt Q13557+Q13555+Q13554+Q9UQM7). The experiment in a line: Activity against CaMK2 at 10 uM in the presence of 100 uM ATP relative to control. In kind it is protein assay.
Assay [9] has as its target Mitogen-activated protein kinase 14 (Homo sapiens) (UniProt Q16539). The experiment in a line: Activity against SAPK2-alpha at 10 uM in the presence of 100 uM ATP relative to control.
Assay [10] addresses Cyclin-dependent kinase 2/cyclin A (Homo sapiens) (UniProt P24941+P20248+P78396). The experiment in a line: Activity against CDK2/cyclinA at 10 uM in the presence of 100 uM ATP relative to control. Format: protein-complex assay.
Assay [11] deals with Protein kinase C alpha type (Homo sapiens) (UniProt P17252). The experiment in a line: Activity against PKCalpha at 10 uM in the presence of 100 uM ATP relative to control.
The target in assay [12] is cAMP-dependent protein kinase (PKA) (Homo sapiens) (UniProt P22694+P17612+P22612). The assay can be described thus: Activity against PKA at 10 uM in the presence of 100 uM ATP relative to control. In kind it is protein assay.
Assay [13] deals with Tyrosine-protein kinase Lck (Homo sapiens) (UniProt P06239). The experiment in a line: Activity against Lck at 10 uM in the presence of 100 uM ATP relative to control.
Tyrosine-protein kinase Lck (Homo sapiens), sequence (P06239 2-509 limits assumed): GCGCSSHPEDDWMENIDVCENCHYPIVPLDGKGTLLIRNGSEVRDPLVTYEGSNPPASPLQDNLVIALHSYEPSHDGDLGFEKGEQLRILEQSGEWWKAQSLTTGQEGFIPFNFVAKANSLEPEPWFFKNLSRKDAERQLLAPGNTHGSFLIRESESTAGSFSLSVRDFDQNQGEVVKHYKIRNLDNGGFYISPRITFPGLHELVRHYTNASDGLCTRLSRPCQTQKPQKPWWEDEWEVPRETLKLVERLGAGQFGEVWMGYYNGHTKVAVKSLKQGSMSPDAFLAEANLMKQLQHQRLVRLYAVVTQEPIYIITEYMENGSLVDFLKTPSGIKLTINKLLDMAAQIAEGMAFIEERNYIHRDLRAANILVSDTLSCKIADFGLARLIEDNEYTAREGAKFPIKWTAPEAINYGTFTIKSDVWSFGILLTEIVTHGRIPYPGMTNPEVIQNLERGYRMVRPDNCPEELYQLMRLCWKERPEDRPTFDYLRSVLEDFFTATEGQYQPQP
For assay [14], the target named is Tyrosine-protein kinase ABL1 (Homo sapiens) (UniProt P00519). The experiment in a line: Activity against Abl at 10 uM in the presence of 100 uM ATP relative to control.
Tyrosine-protein kinase ABL1 (Homo sapiens), sequence (P00519 whole entry): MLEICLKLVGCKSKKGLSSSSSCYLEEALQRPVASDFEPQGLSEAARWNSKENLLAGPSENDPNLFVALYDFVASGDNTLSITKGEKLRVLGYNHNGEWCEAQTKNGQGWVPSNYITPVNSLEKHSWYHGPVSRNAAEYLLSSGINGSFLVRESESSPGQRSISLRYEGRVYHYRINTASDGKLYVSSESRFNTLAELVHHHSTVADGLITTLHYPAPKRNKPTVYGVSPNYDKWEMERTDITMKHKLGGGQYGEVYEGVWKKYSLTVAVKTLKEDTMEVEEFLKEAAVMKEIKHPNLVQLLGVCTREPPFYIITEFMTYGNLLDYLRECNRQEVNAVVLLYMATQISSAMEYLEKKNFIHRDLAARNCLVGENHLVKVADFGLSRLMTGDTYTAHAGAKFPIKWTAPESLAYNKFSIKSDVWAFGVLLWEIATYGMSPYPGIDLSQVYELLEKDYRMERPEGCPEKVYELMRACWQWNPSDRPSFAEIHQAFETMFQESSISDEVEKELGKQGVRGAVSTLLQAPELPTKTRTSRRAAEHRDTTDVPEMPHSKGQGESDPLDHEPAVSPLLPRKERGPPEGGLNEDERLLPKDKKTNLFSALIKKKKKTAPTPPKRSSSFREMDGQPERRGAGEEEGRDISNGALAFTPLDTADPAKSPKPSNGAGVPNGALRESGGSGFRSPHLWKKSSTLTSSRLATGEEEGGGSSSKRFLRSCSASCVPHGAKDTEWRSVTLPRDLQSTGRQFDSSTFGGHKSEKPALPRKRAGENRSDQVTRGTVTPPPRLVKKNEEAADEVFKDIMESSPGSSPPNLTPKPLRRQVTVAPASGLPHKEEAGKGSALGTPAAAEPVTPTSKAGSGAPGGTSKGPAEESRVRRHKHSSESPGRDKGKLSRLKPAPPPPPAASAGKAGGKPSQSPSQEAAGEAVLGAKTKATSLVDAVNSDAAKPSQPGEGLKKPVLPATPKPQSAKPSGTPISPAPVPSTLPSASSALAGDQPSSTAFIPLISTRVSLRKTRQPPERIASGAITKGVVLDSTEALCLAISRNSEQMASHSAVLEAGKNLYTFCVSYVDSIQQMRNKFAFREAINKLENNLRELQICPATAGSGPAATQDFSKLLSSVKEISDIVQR
The target in assay [15] is Mitogen-activated protein kinase 10 (Homo sapiens) (UniProt P53779). The assay can be described thus: Activity against JNK3 at 10 uM in the presence of 100 uM ATP relative to control.
Mitogen-activated protein kinase 10 (Homo sapiens), sequence (P53779 whole entry): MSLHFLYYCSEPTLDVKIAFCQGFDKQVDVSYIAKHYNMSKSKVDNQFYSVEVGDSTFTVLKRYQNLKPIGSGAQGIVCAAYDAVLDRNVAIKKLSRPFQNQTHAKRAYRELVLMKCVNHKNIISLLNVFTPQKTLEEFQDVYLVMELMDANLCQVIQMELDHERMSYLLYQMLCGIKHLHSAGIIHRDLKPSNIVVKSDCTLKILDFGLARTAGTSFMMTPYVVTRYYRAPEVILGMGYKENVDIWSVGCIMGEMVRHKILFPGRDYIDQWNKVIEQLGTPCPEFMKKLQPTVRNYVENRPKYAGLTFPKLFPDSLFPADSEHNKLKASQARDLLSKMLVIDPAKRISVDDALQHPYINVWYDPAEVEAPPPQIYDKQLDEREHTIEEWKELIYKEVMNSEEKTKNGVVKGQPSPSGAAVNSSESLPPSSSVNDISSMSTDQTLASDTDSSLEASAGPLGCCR
Assay [16] addresses Cyclin-dependent kinase 5/CDK5 activator 1 (Homo sapiens) (UniProt Q00535+Q15078). The experiment in a line: Activity against CDK5/p35 at 10 uM in the presence of 100 uM ATP relative to control. In kind it is protein-complex assay.
For assay [17], the target named is T2, Dual specificity tyrosine-phosphorylation-regulated kinase 2 (Homo sapiens) (UniProt Q92630).
T2 sequence (whole entry): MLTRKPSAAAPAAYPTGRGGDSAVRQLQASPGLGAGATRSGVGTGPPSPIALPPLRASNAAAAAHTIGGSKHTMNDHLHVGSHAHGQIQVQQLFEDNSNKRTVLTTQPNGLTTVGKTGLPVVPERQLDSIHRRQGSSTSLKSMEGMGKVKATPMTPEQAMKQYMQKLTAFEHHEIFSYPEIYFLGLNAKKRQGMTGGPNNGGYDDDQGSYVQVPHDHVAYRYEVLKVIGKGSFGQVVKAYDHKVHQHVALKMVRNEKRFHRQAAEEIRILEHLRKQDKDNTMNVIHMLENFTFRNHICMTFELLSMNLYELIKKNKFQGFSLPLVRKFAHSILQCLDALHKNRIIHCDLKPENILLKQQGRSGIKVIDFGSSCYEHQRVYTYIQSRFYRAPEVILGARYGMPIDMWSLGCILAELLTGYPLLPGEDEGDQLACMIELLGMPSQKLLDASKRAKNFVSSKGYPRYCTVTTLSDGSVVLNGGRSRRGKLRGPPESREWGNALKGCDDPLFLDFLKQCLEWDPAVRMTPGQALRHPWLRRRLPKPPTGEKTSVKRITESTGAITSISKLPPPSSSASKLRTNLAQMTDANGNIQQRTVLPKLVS
The experiment in a line: Activity against DYRK2 at 10 uM in the presence of 100 uM ATP relative to control.

Structures are written as SMILES. Active and inactive are the calls of the source. No cut-off for these calls is given here.

Cyclin-dependent kinase 5/CDK5 activator 1 (Homo sapiens), sequence (Q00535 whole entry): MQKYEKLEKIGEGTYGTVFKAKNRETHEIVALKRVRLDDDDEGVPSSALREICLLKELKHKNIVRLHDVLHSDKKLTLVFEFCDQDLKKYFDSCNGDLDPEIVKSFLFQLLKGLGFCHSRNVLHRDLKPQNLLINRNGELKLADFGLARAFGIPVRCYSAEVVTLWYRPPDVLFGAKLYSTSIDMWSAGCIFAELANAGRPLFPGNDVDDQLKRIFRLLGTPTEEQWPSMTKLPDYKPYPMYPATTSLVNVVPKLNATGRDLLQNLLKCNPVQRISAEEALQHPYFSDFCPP
Cyclin-dependent kinase 5/CDK5 activator 1 (Homo sapiens), sequence (Q15078 99-307 partner limits assumed): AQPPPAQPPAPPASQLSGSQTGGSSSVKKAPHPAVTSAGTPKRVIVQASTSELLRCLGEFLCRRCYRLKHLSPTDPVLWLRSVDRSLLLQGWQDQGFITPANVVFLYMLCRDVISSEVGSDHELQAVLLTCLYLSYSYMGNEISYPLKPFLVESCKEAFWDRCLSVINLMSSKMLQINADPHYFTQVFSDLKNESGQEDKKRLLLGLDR
Glycogen synthase kinase-3 beta (Homo sapiens), sequence (P49841 whole entry, looked up): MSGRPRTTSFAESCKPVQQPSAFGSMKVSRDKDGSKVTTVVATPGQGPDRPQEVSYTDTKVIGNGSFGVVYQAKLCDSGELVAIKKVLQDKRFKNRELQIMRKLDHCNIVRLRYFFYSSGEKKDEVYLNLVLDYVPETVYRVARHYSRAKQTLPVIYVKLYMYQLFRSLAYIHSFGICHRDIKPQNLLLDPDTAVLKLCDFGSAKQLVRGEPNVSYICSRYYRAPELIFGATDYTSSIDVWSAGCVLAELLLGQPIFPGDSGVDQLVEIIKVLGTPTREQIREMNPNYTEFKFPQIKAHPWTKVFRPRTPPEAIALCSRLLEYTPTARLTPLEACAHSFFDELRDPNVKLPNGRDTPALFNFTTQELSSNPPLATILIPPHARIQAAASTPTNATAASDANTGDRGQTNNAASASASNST
Mitogen-activated protein kinase 14 (Homo sapiens), sequence (Q16539 whole entry): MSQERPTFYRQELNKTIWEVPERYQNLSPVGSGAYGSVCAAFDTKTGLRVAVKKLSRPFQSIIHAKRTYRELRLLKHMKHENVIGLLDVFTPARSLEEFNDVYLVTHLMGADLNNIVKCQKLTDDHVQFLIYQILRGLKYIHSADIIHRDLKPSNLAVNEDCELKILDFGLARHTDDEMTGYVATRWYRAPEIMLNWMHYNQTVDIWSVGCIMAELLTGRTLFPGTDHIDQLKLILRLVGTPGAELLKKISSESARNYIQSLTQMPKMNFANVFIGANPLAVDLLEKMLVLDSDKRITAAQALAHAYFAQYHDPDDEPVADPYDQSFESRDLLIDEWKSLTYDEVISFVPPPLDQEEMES

Regarding `CCOC(=O)c1cnc2ccc(C(=O)OC)cc2c1Nc1cccc(C(C)=O)c1`, in assay [1], 50 µM corresponded to half-maximal inhibition (IC50). In [2], this molecule returned an inhibition of 51%.
For `CCOC(=O)c1ccc2ncc(C(=O)OCC)c(Nc3ccc(C)c(Br)c3)c2c1`, in that order: 50 µM and 13%.
`C=CCOc1ccc(Br)cc1/C=C1\SC(Nc2ccc(Cl)c(C(=O)O)c2)=NC1=O` gave an IC50 in [1] of 20 µM. Besides, the inhibition entry in assay [2] was “inactive”.
In [2], `COc1ccc(O)c(-c2cc(-c3ccccc3Cl)[nH]n2)c1` yielded an inhibition of 43%.
As for `Cc1cccc(Nc2nc(-c3c(C)nc4ncccn34)cs2)c1`, in assay [1], the IC50 is above 50 µM. In [2], this molecule displayed an inhibition of 25%.
`COc1ccc(O)c(-c2cc(-c3ccccc3Cl)n[nH]2)c1` returned an IC50 in assay [1] of 20 µM.
Consider `COc1cccc(NC(=O)Nc2nnc(-c3ccncc3)s2)c1`, for which the Activity amounted to 110% in assay [3]; 47% in assay [4]; 138% in [5]; 69% in assay [6]; 11% in assay [7]; 98% in assay [8]. The Activity in assay [9] was found to be 101%; in assay [10], 96%; in [11] it was 83%; in [12] it was 104%; in assay [13] it was 113%; in assay [14], 96%. Moreover, the figures for the Activity in assay [15], in [16] and in [17] were 98%, 104% and 77%, respectively. Moreover, the IC50 in [1] is 5 µM. This molecule came in with an inhibition in [2] of 41%.
Turning to `Brc1ccc(Nc2nc(NCc3ccco3)c3ccccc3n2)cc1`, in assay [1], it took 5 µM to reach half-maximal inhibition (IC50). Also, in [2], the inhibition came out at 8%.
The matching figures for `CCOC(=O)c1ccc2ncc(C(=O)OCC)c(Nc3ccc(NC(C)=O)cc3)c2c1`: 10 µM and 52%.
Take `COc1cc(/C=C2\C(=O)NN(c3ccc(Cl)c(Cl)c3)C2=O)ccc1O`: the Activity in assay [3] stood at 61%; in assay [4] it was 69%; in assay [5], 122%; in [6] it was 71%; in [7], 36%; in assay [8], 72%. Besides, the Activity is 112% in assay [9]; 90% in assay [10]; 78% in assay [11]; 107% in [12]; 105% in [13]; 94% in assay [14]. For the same molecule, the Activity in [15] came to 86%; in assay [16], 99%; in [17], 59%. Half-maximal inhibition in assay [1] (IC50) was put at 2.5 µM. The molecule further displayed an inhibition in assay [2] of 82%.
In turn, `COc1cc(/C=C2\C(=O)NN(c3cccc(Cl)c3)C2=O)ccc1O` registered an IC50 in assay [1] above 50 µM. The molecule further came in with an inhibition in [2] of 74%.
For `CN1C(=O)/C(=C2\SC(Nc3ccc(F)cc3)=NC2=O)c2ccccc21`, in that order: 50 µM and 12%.

A word on the IC50: it is the concentration needed to halve the response being measured. Low values mean inhibition by little substance, high ones a need for much substance. A word on the inhibition: it is the change of the read-out against control, counted positive when it falls.
